Earlier results on one compound are cited in patent US20200353179A1, “Device for Deterring Abuse of Drugs” (EIGHTY EIGHT PHARMA, INC., priority 2017, published 2020).

The conditions of data set [1]: 800 mg daily for up to one week.
For data set [2], the system named is pharmacologic effects of intravenously administered heroin.

Counter-ions that a name gives are not always drawn. Like-named read-outs stand apart in the source and are kept apart here.

On to `O=C1CC[C@@]2(O)[C@H]3Cc4ccc(O)c5c4[C@@]2(CCN3CC2CC2)[C@H]1O5` [naltrexone hydrochloride], for which the “toxicity in human subjects” value in data set [1] is “no evidence of toxicity”. The “signs produced by high doses” value in the data set on animals (high doses, generally >1,000 mg/kg) is “salivation, depression/reduced activity, tremors, and convulsions”. Further, in the data set on animals (high-dose naltrexone administration), the “cause of mortalities in animals” value is on record as “tonic-clonic convulsions and/or respiratory failure”. For the same compound, the “duration of blockade of pharmacologic effects of heroin” value in data set [2] (50 mg naltrexone hydrochloride, 25 mg intravenously administered heroin) was no more than 24 hours. Also, the duration of blockade in data set [2] (doubling the dose of naltrexone hydrochloride) was 48 h; in data set [2] (tripling the dose of naltrexone hydrochloride) it was “about 72 hours”. Besides, the “effect on the subjective effects of intravenously administered opioids” value in data set [2] (intravenously administered opioids) is reported as “markedly attenuates or completely blocks, reversibly”.
